Assay results reported in patent publication US8461338B2, “(1R, 1′R)-atracurium salts separation process” (Chemagis Ltd., priority 2007, dated 2013).

Columns and labels:
[1] = Stability of cisatracurium salt in different eluent mixtures (HPLC assay of isomer content over time); type: physicochemical; conditions: for % of the 1R-cis,1′R-cis isomer in the eluent composition: room temperature
Description: Table 6 illustrates how the amount of the 1R-cis,1′R-cis isomer changes at room temperature as a function of time in 3 different eluent mixtures. The (1R,1′R)-atracurium besylate isomer mixture was dissolved in the eluent and the resulting solutions were allowed to stand at room temperature for a period of 26 hours. After certain time intervals, as specified in Table 6, samples were withdrawn from each one of the 3 solutions and assayed by HPLC to determine the amount of the 1R-cis,1′R-cis isomer in the mixture.
The stability of the cisatracurium salt in the eluent mixture at 25° C. is presented in FIG. 1 whereby two plots are compared, that is, the plot describing the stability of the 1R-cis,1′R-cis isomer in the eluent mixture of 80:10:10 dichloromethane:DMSO:formic acid of the present invention (Column A in Table 6) vs. the plot of the dichloromethane:MeOH:benzenesulfonic acid eluent system, described in U.S. Pat. No. 5,556,978, example 2 (Column C in Table 6).

[2] = cited from earlier work

SMILES: COc1ccc(C[C@@H]2c3cc(OC)c(OC)cc3CC[N@+]2(C)CCC(=O)OCCCCCOC(=O)CC[N@@+]2(C)CCc3cc(OC)c(OC)cc3[C@H]2Cc2ccc(OC)c(OC)c2)cc1OC [1R-cis,1′R-cis isomer, (1R,1′R,2R,2′R)-2,2′-[1,5-pentanediylbis[oxy(3-oxo-3,1-propanediyl)]]bis[1-[(3,4-dimethoxyphenyl)methyl]-1,2,3,4-tetrahydro-6,7-dimethoxy-2-methyl-isoquinolinium dibenzenesulfonate]
- change of the content of the 1R-cis,1′R-cis isomer in the eluent mixture ([1]; dichloromethane:DMSO:formic acid eluent mixture, after 26 hours): remains unchanged
- decrease of the content of the 1R-cis,1′R-cis isomer in the eluent mixture ([1]; dichloromethane:methanol:benzenesulfonic acid eluent (U.S. 5,556,978, example 2), after 26 hours at room temperature): more than 3%
- % of the 1R-cis,1′R-cis isomer in the eluent composition ([1]; eluent A dichloromethane:DMSO:formic acid 80:10:10, 0 hours): 55.1%
- % of the 1R-cis,1′R-cis isomer in the eluent composition ([1]; eluent A dichloromethane:DMSO:formic acid 80:10:10, 2 hours): 55.4%
- % of the 1R-cis,1′R-cis isomer in the eluent composition ([1]; eluent A dichloromethane:DMSO:formic acid 80:10:10, 11 hours): 55.2%
- % of the 1R-cis,1′R-cis isomer in the eluent composition ([1]; eluent A dichloromethane:DMSO:formic acid 80:10:10, 12 hours): 55.1%
- % of the 1R-cis,1′R-cis isomer in the eluent composition ([1]; eluent A dichloromethane:DMSO:formic acid 80:10:10, 24 hours): 55.3%
- % of the 1R-cis,1′R-cis isomer in the eluent composition ([1]; eluent A dichloromethane:DMSO:formic acid 80:10:10, 26 hours): 55.4%
- % of the 1R-cis,1′R-cis isomer in the eluent composition ([1]; eluent B dichloromethane:DMSO:benzenesulfonic acid 90:10:0.006, 0 hours): 55.3%
- % of the 1R-cis,1′R-cis isomer in the eluent composition ([1]; eluent B dichloromethane:DMSO:benzenesulfonic acid 90:10:0.006, 2 hours): 55.3%
- % of the 1R-cis,1′R-cis isomer in the eluent composition ([1]; eluent B dichloromethane:DMSO:benzenesulfonic acid 90:10:0.006, 11 hours): 55.3%
- % of the 1R-cis,1′R-cis isomer in the eluent composition ([1]; eluent B dichloromethane:DMSO:benzenesulfonic acid 90:10:0.006, 12 hours): 55.3%
- % of the 1R-cis,1′R-cis isomer in the eluent composition ([1]; eluent B dichloromethane:DMSO:benzenesulfonic acid 90:10:0.006, 24 hours): 55.3%
- % of the 1R-cis,1′R-cis isomer in the eluent composition ([1]; eluent B dichloromethane:DMSO:benzenesulfonic acid 90:10:0.006, 26 hours): 55.2%
- % of the 1R-cis,1′R-cis isomer in the eluent composition ([1]; eluent C dichloromethane:methanol:benzenesulfonic acid 4000:500:0.5, 0 hours): 55.3%
- % of the 1R-cis,1′R-cis isomer in the eluent composition ([1]; eluent C dichloromethane:methanol:benzenesulfonic acid 4000:500:0.5, 2 hours): 54.9%
- % of the 1R-cis,1′R-cis isomer in the eluent composition ([1]; eluent C dichloromethane:methanol:benzenesulfonic acid 4000:500:0.5, 11 hours): 53.4%
- % of the 1R-cis,1′R-cis isomer in the eluent composition ([1]; eluent C dichloromethane:methanol:benzenesulfonic acid 4000:500:0.5, 12 hours): 53.7%
- % of the 1R-cis,1′R-cis isomer in the eluent composition ([1]; eluent C dichloromethane:methanol:benzenesulfonic acid 4000:500:0.5, 24 hours): 52.6%
- % of the 1R-cis,1′R-cis isomer in the eluent composition ([1]; eluent C dichloromethane:methanol:benzenesulfonic acid 4000:500:0.5, 26 hours): 52.0%
- rate of loss in potency ([2]; at 25° C. (77° F.)): approximately 5 % per month
- rate of loss of potency ([2]; under refrigeration (5° C.)): approximately 5 % per year
